Measured values published in US10766855B2, “Hydroxamate triterpenoid derivatives” (VIVACELL BIOTECHNOLOGY ESPANA S.L., priority 2016, dated 2020).

Columns and labels:
[1] = tested on: HIF-1α; assay: HIF-1α stabilization in 293T cells (Western blot); assay type: cell-based, human; details: increasing concentrations, 3 h
Protocol: Stimulation of human Embryonic Kidney 293 cells with increasing concentrations of compound VII or with DFX (150 μM) during 3 h. The steady state levels of the proteins HIF-1α, PHD1, PHD2 and β-actin were determined by Western blots.
Next, Human Embryonic Kidney 293 cells (293T) were stimulated with the increasing concentrations of compound VII or with DFX (150 μM) during 3 h. After that, proteins isolation and western blots were performed as in FIG. 3. The antibody against HIF-1α (610959) was from BD Biosciences (USA), the antibodies anti-PHD1 (ab80361) and anti-PHD2 (ab109088) were from Abcam (Cambrigde, UK), and the antibody anti-β-actin (AC-74) was purchased from Sigma-Aldrich (Saint Louis, Mo., USA).

[2] = tested on: Nrf2; assay: Nrf2 activation/inhibition in HaCaT-ARE-Luc cells; assay type: cell-based
[3] = tested on: STAT3; assay: STAT3 inhibition in HeLa-STAT3-Luc cells stimulated with IFN-γ; assay type: cell-based; details: IFN-γ 25 IU/ml, 6 h
Protocol: (§1) The HeLa-STAT3-luc cells stably transfected with the plasmid 4×M67 pTATA TK-Luc. Cells (20×10^3 cells/ml) were seeded in 96-well plates, treated with increasing concentrations of the compounds II to XIV, and of comparative compound CDDO-Me, for 15 min and then stimulated with IFN-γ 25 IU/ml. After 6 h the luciferase activity in the cell lysates was measured as indicated above. […] The HaCaT-ARE-Luc cell line contains the Nqo1 Antioxidant Response Element (ARE)-Luc reporter plasmid. ARE is activated by all members of the CNC family of factors (Nrf1, Nrf2, Nrf3 and p45 NF-E2). The cells were cultivated in 96-well plates at the concentration of 25×10^3 cells/well in a CO2 incubator at 37° C. For induction of Nrf2 activation the cells were treated with increasing concentrations of the compounds II to XV, and of comparative compound CDDO-Me, for 6 h. As a positive control the cells were treated with 0.02 mM of the antioxidant Tert-butyl-hydroquinone (TBHQ). Luciferase activity in the cell lysates was measured as indicated above and the EC50 calculated (Table III). The CHO-TGR5-CRE-Luc cells stably transfected with the pTGR5 and CRE-Luc. The CRE-responsive luciferase construct encodes the firefly luciferase reporter gene under the control of a minimal (m)CMV promoter and tandem repeats of the CRE transcriptional response element (TRE) and is useful to monitor cAMP signaling pathways activated by TGR5 agonists. Cells (1×10^4/well) were seeded in 96-well plates, treated with increasing concentrations of the compounds II to XV and CDDO-Me, for 6 h. As a positive control the cells were treated with 10 μM of LCA (lithocholic acid). Luciferase activity in the cell lysates was measured as indicated above and the EC50 calculated (Table III).

[4] = tested on: HFD mice; assay: High fat diet (HFD) model of diabetes and metabolic pathologies in mice; assay type: in vivo, mouse; details: 30 mg/kg i.p. every 24 h
Protocol: High-fat diet-fed mouse is a widely used model for impaired glucose tolerance (IGT) and type 2 diabetes. Eight-week-old male C57BL/6 mice (Charles River-France) were used for experiments. Mice were maintained under controlled conditions [12 h light/dark cycle; temperature 20° C. (±2° C.) and 40-50% relative humidity] with free access to tap water and standard rodent chow ad libitum. After 1 week of acclimatization, mice were divided into two groups and fed ad libitum with a standard diet—CD- (Code U8220G10R, SAFE Diets, Augy, France) or a High-Fat diet—HFD- (D12451; Research Diets, New Brunswick, N.J.) in order to induce obesity for 15 weeks (diet-induced obesity, DIO). In order to assess the potential beneficial metabolic effects of compound VII in this model of DIO, pharmacological administration of the compound (30 mg/kg body weight) was performed by intraperitoneal (i.p.) injection every 24 h from 12th to 15th week of diet exposure. Control animals received the corresponding vehicle injections (1:1:18 Ethanol:Cremophor:Saline).
To ensure the effectiveness of HFD feeding regimen and assess the efficacy of compounds in terms of amelioration of the metabolic phenotype, body composition analyses of fat and lean masses were performed by QMR (quantitative magnetic resonance) using the EchoMRI™ 700 analyzer (Houston, Tex., software v. 2.0). In this sense, MRI scans were taken in three time points during the experimental period: before starting diet exposure, after 12 week of feeding regimen (coinciding with start of treatment) and at the end of experimental procedures (on the 15th week of diet exposure). Additionally, five days before sacrifice, glucose tolerance test (GTT) was performed in overnight food-deprived mice. To this end, mice were injected intraperitoneally with 2 mg of glucose/g body weight and blood glucose was measured before and 30, 60 and 120 min after injection utilizing an Accu-Chek Advantage® (Roche) glucometer. At the end of the experiment, mice were sacrificed and blood samples were collected using EDTA-coated tubes and plasma stored at −80° C. Plasma triglycerides were measured using and enzymatic colorimetric kit (QCA, Barcelona, Spain).

[5] = tested on: NF-κB; assay: NF-κB inhibition in NIH-3T3-KBF-Luc cells stimulated with TNFα; assay type: cell-based; details: TNFα 30 ng/ml, 6 h
Protocol: To further study the target selectivity of the compounds described in the present invention the effect of the natural triterpenoids (OA; BA, UA, and MA), compounds II to XV of Formula (I) disclosed in present invention, and of comparative compound CDDO-Me on NF-κB inhibition, STAT-3 inhibition, Nrf2 activation and TGR5 activation was analyzed. For this study cell lines NIH-3T3-KBF-Luc, HeLa-STAT3-Luc, HaCaT-ARE-Luc and CHO-TGR5-CRE-luc were used respectively. The NIH3T3-KBF-Luc cell line stably transfected with the plasmid KBF-Luc plasmid, which contains three copies of NF-κB binding site (from major histocompatibility complex promoter), fused to a minimal simian virus 40 promoter driving the luciferase gene. Cells (1×10^4/well) were seeded in 96-well plates, treated with increasing concentrations of the compounds II to XV for 15 min and then stimulated with 30 ng/ml TNFα. After 6 h the luciferase activity in the cell lysates was measured as indicated above.

[6] = tested on: Nrf2; assay: Nrf2 activation/inhibition in HaCaT-ARE-Luc cells; assay type: cell-based; details: 6 h
Protocol: as §1

With C=C(C)[C@@H]1CC[C@]2(C(=O)NO)CC[C@]3(C)[C@H](CC[C@@H]4[C@@]5(C)CC[C@H](O)C(C)(C)[C@@H]5CC[C@]43C)[C@@H]12 [Compound VII, (3β) 3-Hydroxy-N-hydroxy-lup-20(29)-en-28-amide] the HIF-1α expression [1] was “stabilized HIF-1α expression”, the “expression of PHD1 and PHD2” value [1] was “without affecting the expression of PDH1 and PDH2” and the IC50 [2] was over 50 µM. For the same compound, the IC50 [3] was over 50 µM, the “glucose tolerance (GTT)” value ([4]; 3 weeks) was “improved glucose tolerance” and the “plasma levels of triglycerides” value ([4]; 3 weeks) was “normalize the plasma levels of triglycerides”. For the same compound, the adiposity ([4]; 12th to 15th week) was “alleviated”, the “increase in Fat Mass” value ([4]; 12th to 15th week) was “alleviated” and the weight gain ([4]; 12th to 15th week) was “alleviated weight gain”. For the same compound, the IC50 [5] was over 50 µM and the EC50 [6] was over 50 µM.
